From US8163771B2, “11 β-HSD1 modulators” (Exelixis, Inc., priority 2008, dated 2012)

These compounds were tested against T1, recombinant human 11 β-HSD1 (Homo sapiens, UniProt P28845) (assay: 11 β-HSD1 SPA Assay (Scintillation Proximity Assay)).
T1 construct: made in house; host or cells: E. coli
Format: biochemical
Outline: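 Scintillation proximity read-out of cortisol formed from 40 nM [3H]cortisone by purified recombinant human enzyme (30-100 nM, E. coli) with 1 mM NADPH, pH7.4, 2 hours at room temperature; beads with cortisol antibody and glycyrrhetinic acid stop the reaction, read next day. IC50 derived from inhibition normalised to background and maximal wells.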

T1 sequence (P28845 whole entry): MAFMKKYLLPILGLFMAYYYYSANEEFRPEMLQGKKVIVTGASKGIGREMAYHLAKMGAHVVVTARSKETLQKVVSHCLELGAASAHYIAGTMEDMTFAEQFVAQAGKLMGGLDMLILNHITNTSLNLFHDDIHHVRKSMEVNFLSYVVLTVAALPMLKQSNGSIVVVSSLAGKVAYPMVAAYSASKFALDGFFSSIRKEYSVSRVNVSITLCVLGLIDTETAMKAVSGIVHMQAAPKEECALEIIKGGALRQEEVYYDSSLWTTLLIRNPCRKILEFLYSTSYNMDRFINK

Q: Which IC50 does the source give for `CC(C)(Oc1cc(C(C)(C)O)c(Cl)cc1Cl)C(=O)NC1CC2CCC(C1)N2c1ccc(C(=O)NCC(O)C(F)(F)F)cn1` (stereo not drawn) [Example 381, 6-[3-endo-({2-[2,4-dichloro-5-(2-hydroxypropan-2-yl)phenoxy]-2-methylpropanoyl}amino)-8-azabicyclo[3.2.1]oct-8-yl]-N-(3,3,3-trifluoro-2-hydroxypropyl)pyridine-3-carboxamide] here?
A: The IC50 was < 0.2 µM.

Q: Which IC50 does the source give for `CC(C)NC(=O)c1ccc(N2[C@@H]3CC[C@H]2C[C@@H](NC(=O)C(C)(C)Oc2ncc(Cl)cc2Cl)C3)nc1` [Example 400, 6-(3-endo-(2-(3,5-dichloropyridin-2-yloxy)-2-methylpropanamido)-8-azabicyclo[3.2.1]octan-8-yl)-N-isopropylnicotinamide] here?
A: The IC50 was < 0.2 µM.

Q: With `CCN(CC)CCNC(=O)c1ccc(N2[C@@H]3CC[C@H]2C[C@@H](NC(=O)C(C)(C)Oc2ccc(Cl)cc2Cl)C3)nc1` [Example 377, 6-(3-endo-{[2-(2,4-dichlorophenoxy)-2-methylpropanoyl]amino}-8-azabicyclo[3.2.1]oct-8-yl)-N-[2-(diethylamino)ethyl]pyridine-3-carboxamide] as the compound, how does the IC50 read?
A: The IC50 was < 0.2 µM.

Q: For `CC(C)(Oc1ccc(Cl)cc1Cl)C(=O)N[C@H]1C[C@H]2CC[C@@H](C1)N2c1ccc(C(=O)NCC(F)(F)F)nc1` [Example 170, 5-[3-endo-({2-[(2,4-dichlorophenyl)oxy]-2-methylpropanoyl}amino)-8-azabicyclo[3.2.1]oct-8-yl]-N-(2,2,2-trifluoroethyl)pyridine-2-carboxamide], which IC50 is on record?
A: The IC50 was < 0.2 µM.

Q: How did the IC50 turn out when `CC(C)(Oc1ccc(Cl)cc1)C(=O)N[C@H]1C[C@H]2CC[C@@H](C1)N2c1ncc(C(=O)NC2CC2)cn1` [Example 36, 2-[3-endo-({2-[(4-chlorophenyl)oxy]-2-methylpropanoyl}amino)-8-azabicyclo[3.2.1]oct-8-yl]-N-cyclopropylpyrimidine-5-carboxamide] was run?
A: Its IC50 is < 0.2 µM.

Q: `O=C(NC1CC1)c1ccc(N2[C@@H]3CC[C@H]2C[C@@H](NC(=O)C2(c4cccc(F)c4)CC2)C3)nc1` [Example 39, N-cyclopropyl-6-[3-endo-({[1-(3-fluorophenyl)cyclopropyl]carbonyl}amino)-8-azabicyclo[3.2.1]oct-8-yl]pyridine-3-carboxamide] was tested. Which IC50 did it give?
A: The IC50 was < 0.2 µM.

Q: Which IC50 does the source give for `CC(C)(Oc1ccc(Cl)cc1C(F)(F)F)C(=O)N[C@H]1C[C@H]2CC[C@@H](C1)N2c1ccc(C(=O)NCC(F)(F)F)cn1` [Example 144, 6-{3-endo-[(2-{[4-chloro-2-(trifluoromethyl)phenyl]oxy}-2-methylpropanoyl)amino]-8-azabicyclo[3.2.1]oct-8-yl}-N-(2,2,2-trifluoroethyl)pyridine-3-carboxamide] here?
A: Its IC50 is < 0.2 µM.

Q: With `CS(=O)(=O)c1cccc(C2(C(=O)N[C@H]3C[C@H]4CC[C@@H](C3)N4c3ccc(S(N)(=O)=O)cn3)CC2)c1` [Example 313, N-{8-[5-(aminosulfonyl)pyridin-2-yl]-8-azabicyclo[3.2.1]oct-3-endo-yl}-1-[3-(methylsulfonyl)phenyl]cyclo-propanecarboxamide] as the compound, how does the IC50 read?
A: The IC50 was < 2 µM.

Q: Which IC50 does the source give for `CC(C)NC(=O)c1ccc(N2[C@@H]3CC[C@H]2C[C@@H](NC(=O)C(C)(C)Oc2ccc(Cl)cc2S(C)(=O)=O)C3)nc1` [Example 368, 6-[3-endo-({2-[4-chloro-2-(methylsulfonyl)phenoxy]-2-methylpropanoyl}amino)-8-azabicyclo[3.2.1]oct-8-yl]-N-(propan-2-yl)pyridine-3-carboxamide] here?
A: Its IC50 is < 0.2 µM.

Q: `CC(C)(Oc1ccc(F)c(Cl)c1)C(=O)N[C@H]1C[C@H]2CC[C@@H](C1)N2c1ccc(S(N)(=O)=O)cn1` [Example 227, N-{8-[5-(aminosulfonyl)pyridin-2-yl]-8-azabicyclo[3.2.1]oct-3-endo-yl}-2-[(3-chloro-4-fluorophenyl)oxy]-2-methylpropanamide] was tested. Which IC50 did it give?
A: The IC50 was < 0.2 µM.

Q: `CC(C)NC(=O)c1ccc(N2[C@@H]3CC[C@H]2C[C@@H](NC(=O)C(C)(C)Oc2ccc(Cl)c(F)c2)C3)nc1` [Example 84, 6-[3-endo-({2-[(4-chloro-3-fluorophenyl)oxy]-2-methylpropanoyl}amino)-8-azabicyclo[3.2.1]oct-8-yl]-N-(1-methylethyl)pyridine-3-carboxamide] was tested. Which IC50 did it give?
A: Its IC50 is < 0.2 µM.

Q: `CC(C)(Oc1ccc(Cl)cc1)C(=O)N[C@H]1C[C@H]2CC[C@@H](C1)N2c1cnccn1` [Example 66, 2-[(4-chlorophenyl)oxy]-2-methyl-N-(8-pyrazin-2-yl-8-azabicyclo[3.2.1]oct-3-endo-yl)propanamide] was tested. Which IC50 did it give?
A: The IC50 was < 0.2 µM.

Q: With `CC(C)(Oc1ccc(F)c(F)c1)C(=O)N[C@H]1C[C@H]2CC[C@@H](C1)N2c1ccc(S(C)(=O)=O)cn1` [Example 207, 2-[(3,4-difluorophenyl)oxy]-2-methyl-N-{8-[5-(methylsulfonyl)pyridin-2-yl]-8-azabicyclo[3.2.1]oct-3-endo-yl}propanamide] as the compound, how does the IC50 read?
A: Its IC50 is < 2 µM.

Q: Which IC50 does the source give for `CC(C)(Oc1ncc(C(F)(F)F)cc1Cl)C(=O)N[C@H]1C[C@H]2CC[C@@H](C1)N2c1ccc(C(N)=O)cn1` [Example 149, 6-{3-endo-[(2-{[3-chloro-5-(trifluoromethyl)pyridin-2-yl]oxy}-2-methylpropanoyl)amino]-8-azabicyclo[3.2.1]oct-8-yl}pyridine-3-carboxamide] here?
A: Its IC50 is < 0.2 µM.

Q: How did the IC50 turn out when `CC(C)(Oc1ccc(Cl)cc1C(F)(F)F)C(=O)NC1CC2CCC(C1)N2c1ccc(C(=O)NCC(O)C(F)(F)F)cn1` (stereo not drawn) [Example 458, 6-[3-endo-({2-[4-chloro-2-(trifluoromethyl)phenoxy]-2-methylpropanoyl}amino)-8-azabicyclo[3.2.1]oct-8-yl]-N-(3,3,3-trifluoro-2-hydroxypropyl)pyridine-3-carboxamide] was run?
A: The IC50 was < 0.2 µM.

Q: How did the IC50 turn out when `CC(C)(Oc1ccc(F)c(F)c1)C(=O)N[C@H]1C[C@H]2CC[C@@H](C1)N2c1ccc(C(=O)NC2CC2)cn1` [Example 33, N-cyclopropyl-6-[3-endo-({2-[(3,4-difluorophenyl)oxy]-2-methylpropanoyl}amino)-8-azabicyclo[3.2.1]oct-8-yl]pyridine-3-carboxamide] was run?
A: Its IC50 is < 0.2 µM.

Q: Which IC50 does the source give for `COc1cc(F)ccc1OC(C)(C)C(=O)N[C@H]1C[C@H]2CC[C@@H](C1)N2c1ccc(S(C)(=O)=O)cc1` [Example 222, 2-{[4-fluoro-2-(methyloxy)phenyl]oxy}-2-methyl-N-{8-[4-(methylsulfonyl)phenyl]-8-azabicyclo[3.2.1]oct-3-endo-yl}propanamide] here?
A: The IC50 was < 0.2 µM.

Q: For `CC(C)(C(=O)N[C@H]1C[C@H]2CC[C@@H](C1)N2c1ccc(S(C)(=O)=O)cn1)S(=O)(=O)c1ccc(Cl)cc1Cl` [Example 308, 2-[(2,4-dichlorophenyl)sulfonyl]-2-methyl-N-{8-[5-(methylsulfonyl)pyridin-2-yl]-8-azabicyclo[3.2.1]oct-3-endo-yl}propanamide], which IC50 is on record?
A: The IC50 was < 2 µM.

Q: Which IC50 does the source give for `CC(C)(Oc1cc(Cl)c(F)cc1Cl)C(=O)N[C@H]1C[C@H]2CC[C@@H](C1)N2c1ccc(S(N)(=O)=O)cn1` [Example 157, N-{8-[5-(aminosulfonyl)pyridin-2-yl]-8-azabicyclo[3.2.1]oct-3-endo-yl}-2-[(2,5-dichloro-4-fluorophenyl)oxy]-2-methylpropanamide] here?
A: Its IC50 is < 0.2 µM.

Q: Which IC50 does the source give for `CC(C)(Oc1ccc(F)cc1F)C(=O)N[C@H]1C[C@H]2CC[C@@H](C1)N2c1ccc(C(=O)NC2CC2)cn1` [Example 35, N-cyclopropyl-6-[3-endo-({2-[(2,4-difluorophenyl)oxy]-2-methylpropanoyl}amino)-8-azabicyclo[3.2.1]oct-8-yl]pyridine-3-carboxamide] here?
A: The IC50 was < 0.2 µM.

Q: For `CC(C)(Oc1cc(Cl)c(C(C)(C)O)cc1Cl)C(=O)N[C@H]1C[C@H]2CC[C@@H](C1)N2c1ccc(C(=O)NCC(F)F)cn1` [Example 303, 6-[3-endo-({2-[2,5-dichloro-4-(2-hydroxypropan-2-yl)phenoxy]-2-methylpropanoyl}amino)-8-azabicyclo[3.2.1]oct-8-yl]-N-(2,2-difluoroethyl)pyridine-3-carboxamide], which IC50 is on record?
A: The IC50 was < 0.2 µM.

Q: With `CC(C)(Oc1ccc(Cl)cc1Cl)C(=O)N[C@H]1C[C@H]2CC[C@@H](C1)N2c1ccc(C#N)cn1` [Example 55, N-[8-(5-cyanopyridin-2-yl)-8-azabicyclo[3.2.1]oct-3-endo-yl]-2-[(2,4-dichlorophenyl)oxy]-2-methylpropanamide] as the compound, how does the IC50 read?
A: The IC50 was < 0.2 µM.

Q: Which IC50 does the source give for `CC(C)(Oc1ccc(C(F)(F)F)cc1)C(=O)N[C@H]1C[C@H]2CC[C@@H](C1)N2c1ccc(S(C)(=O)=O)cn1` [Example 243, 2-methyl-N-{8-[5-(methylsulfonyl)pyridin-2-yl]-8-azabicyclo[3.2.1]oct-3-endo-yl}-2-{[4-(trifluoromethyl)phenyl]oxy}propanamide] here?
A: The IC50 was < 2 µM.

Q: Which IC50 does the source give for `CC(C)(Oc1ccc(Cl)c(Cl)c1)C(=O)N[C@H]1C[C@H]2CC[C@@H](C1)N2c1ccc(C(=O)NCC(F)(F)F)cc1` [Example 166, 4-[3-endo-({2-[(3,4-dichlorophenyl)oxy]-2-methylpropanoyl}amino)-8-azabicyclo[3.2.1]oct-8-yl]-N-(2,2,2-trifluoroethyl)benzamide] here?
A: Its IC50 is < 0.2 µM.

Q: How did the IC50 turn out when `CC(C)(Oc1ccc(Cl)cc1Cl)C(=O)N[C@H]1C[C@H]2CC[C@@H](C1)N2c1ccc(NC(=O)CC(F)(F)F)cn1` [Example 147, N-{6-[3-endo-({2-[(2,4-dichlorophenyl)oxy]-2-methylpropanoyl}amino)-8-azabicyclo[3.2.1]oct-8-yl]pyridin-3-yl}-3,3,3-trifluoropropanamide] was run?
A: Its IC50 is < 0.2 µM.

Q: Which IC50 does the source give for `CC(C)(Oc1ccc(C(C)(C)O)cc1Cl)C(=O)N[C@H]1C[C@H]2CC[C@@H](C1)N2c1ccc(C(=O)NCC(F)(F)F)cn1` [Example 391, 6-[3-endo-({2-[2-chloro-4-(2-hydroxypropan-2-yl)phenoxy]-2-methylpropanoyl}amino)-8-azabicyclo[3.2.1]oct-8-yl]-N-(2,2,2-trifluoroethyl)pyridine-3-carboxamide] here?
A: The IC50 was < 0.2 µM.

Q: For `CC(C)(Oc1ccc(Cl)cc1Cl)C(=O)N[C@H]1C[C@H]2CC[C@@H](C1)N2c1ccc(NC(=O)CC(F)(F)F)cc1F` [Example 139, N-{4-[3-endo-({2-[(2,4-dichlorophenyl)oxy]-2-methylpropanoyl}amino)-8-azabicyclo[3.2.1]oct-8-yl]-3-fluorophenyl}-3,3,3-trifluoropropanamide], which IC50 is on record?
A: Its IC50 is < 0.2 µM.
